Assay [1] deals with immunoglobulin preparations derived from pooled human serum (Gammagard). Nature of the assay: ELISA reactivity of immunoglobulin preparations (Gammagard) to Fas peptides. The class given is binding. Particulars: O.D. 490 nm classes. The procedure:
Similar experiments were performed with commercially available immunoglobulin preparations derived from pooled human serum enriched by immunosorbence for immunoglobulin fractions (Gammagard-Baxter, Hyland, Glendale, Calif. USA).
On the technique in general: In an ELISA, binding on a coated surface is turned into a signal by an enzyme label.

Assay [2] relates to antibodies in human sera of healthy blood donors. Nature of the assay: ELISA reactivity of human serum to Fas peptides. The class given is binding. The note with it: for Reactivity to Fas peptides in ELISA, Human serum: O.D. 490 nm classes; for reactivity with human sera: sera of 30 healthy blood donors, in words. An excerpt:
The derived amino acid sequence (a.a.1-179) of the Fas protein (Itoh et al., 1991) was used for simultaneous multiple solid-phase peptide synthesis (Houghten et al, 1985) of 20 amino acid long peptides (with a 10-residue overlap).

For a further assay, the system named is Jurkat leukemia T cells. Briefly: TUNEL assay of apoptosis of Jurkat cells on immobilized anti-Fas peptide antibodies. Particulars: immobilized antibody, 48 h, TUNEL/FACS; control well 18%. The class given is cell-based, human. The procedure: The antibody-concentrations were anti-Fp5 (10 μg/ml), anti-Fp11 (10 μg/ml) and anti-Fpl7 (40 μg/ml). Cells were collected after 48 h incubation, and the fragmented DNA of apoptotic cells was assessed by Apoptosis Detection System, Fluorescein (Promega, Madison, Wis.) based on TdT-mediated dUTP Nick-End Labeling (TUNEL) assay and FACS analysis (CellQuest software, Becton Dickinson) according to manufacturer's instructions. For apoptosis inhibition experiments, Jurkat cell culture medium was supplemented with 200 ng/ml of recombinant Fas-Fc chimera (R&D Systems Europe Ltd, Abingdon, UK). Inhibition of CH-11-mediated apoptosis was performed as described in Fadeel et al., 1997. Data are presented as the mean value of four independent experiments, and the standard error of mean is indicated by the error bars.
Ability to mediate apoptosis and inhibition of proliferation was determined using antibodies immobilized to plastic surface.

Assay [3] deals with PHA-stimulated T cell blasts. Nature of the assay: Proliferation of PHA-stimulated T-cell blasts (Alamar Blue). The class given is cell-based, human. Particulars: anti-CD3 alone. The procedure:
PBMC were stimulated with phytohemagglutinin (PHA) ([…]) (Pharmacia Biotech, Sweden) for 48 hours. […] After 48 hours incubation, the proliferation was assessed by Alamar Blue Assay (Biosource International, USA.) and the results were expressed as percent difference in reduction of (fluorometric/colorometric) REDOX indicator between antibody coated and control (without antibodies) wells according to manufacturer's instructions (AMS Biotechnology AB, Sweden).

For assay [4], the target named is Fas peptide Fp11 (Glu100-Cys119) (human). Nature of the assay: peptide ELISA; legend: +++ > 1.0 O.D.
Sequence of Fas peptide Fp11 (Glu100-Cys119) (human) (peptide, as listed by the source): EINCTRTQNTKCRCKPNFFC
For assay [5], the target named is Fas peptide Fp17 (Trp160-Val179) (human). Nature of the assay: peptide ELISA; legend: + = <0.5 O.D. 490 nm.
Assay [6] has as its target Fas peptide Fp5 (Gly40-Val59) (human). Nature of the assay: peptide ELISA; legend: + = <0.5 O.D. 490 nm.

Consider 9 substances from patent US6846637B1, “Fas peptides and antibodies for modulating apoptosis” (IMED AB, priority 1998, dated 2005).

Consider KCRCKPNFFCNSTVCEHCDP [Fp12], for which the “Reactivity to Fas peptides in ELISA, Immunoglobulin preparations (Gammagard)” value (shortened to “Reactivity to Fas peptides … (Gammagard)”) in assay [1] is “++ (++ = <1.0 O.D.)”. In addition, the “Reactivity to Fas peptides in ELISA, Human serum” value (shortened to “Reactivity … Human serum”) in assay [2] was “++ (++ = <1.0 O.D.)”.
Regarding QEGKEYTDKAHFSSKCRRCR [Fp8], the “Reactivity to Fas peptides … (Gammagard)” value in assay [1] is recorded as “+++ (+++ > 1.0 O.D.)”.
On to KEEGSRSNLGWLCLLLLPIP [Fp16], for which the “Reactivity to Fas peptides … (Gammagard)” value in assay [1] is “+ (+ = <0.5 O.D. 490 nm)”. Further, the “reactivity with human sera” value in assay [2] is recorded as “low or no reactivity”.
With HFSSKCRRCRLCDEGHGLEV [Fp9], in assay [1], the “Reactivity to Fas peptides … (Gammagard)” value is listed as “++ (++ = <1.0 O.D.)”.
Same read-out and setting: to LIVWVKRKEVQKTCRKHRKE [Fp18] belongs “+++ (+++ > 1.0 O.D.)”.
As for GQFCHKPCPPGERKARDCTV [Fp5], the “Reactivity to Fas peptides … (Gammagard)” value in assay [1] is on record as “+ (+ = <0.5 O.D. 490 nm)”. Besides, in the assay with Jurkat leukemia T cells, the “apoptosis induced in Jurkat leukemia cells” value is on record as 25%. Moreover, in assay [2], the “Reactivity … Human serum” value is “++ (++ = <1.0 O.D.)” and the “reactivity with human sera” value is given as “reactive”.
Take “anti-CD3: purified anti-CD3 monoclonal antibody (OKT-3, 10 μg/ml)”: the reduction of proliferation in assay [3] was determined as 12%.
For the substance “Immunoglobulin preparations (Gammagard) (antibody)”, the values for the O.D. 490 nm in assay [4], in assay [5] and in assay [6] were > 1 od, < 0.5 od and < 0.5 od, respectively.
Turning to WLCLLLLPIPLIVWVKRKEV [Fp17], in assay [1], the “Reactivity to Fas peptides … (Gammagard)” value is “+ (+ = <0.5 O.D. 490 nm)”. For the same substance, the “serum titers against peptide” value in assay [2] (30 healthy donors, comparison of Fp5, Fp11, Fp17) is “lowest mean titers”. Also, in assay [2], the “Reactivity … Human serum” value was “+++ (+++ > 1.0 O.D.)” and the “reactivity with human sera” value is listed as “reactive”.
